In patent US20250288704A1, “CXCR4-LIGANDS FOR DIAGNOSTIC AND THERAPEUTIC USE AND PRECURSORS THEREOF” (priority 2021, published 2025):
Like-named read-outs stand apart in the source and are kept apart here. Starred links: 1 amine or outer side, 2 acyl side, 3 side chain; linkers in the order of their positions; H or OH if unused. Positions of bridges follow the written chain, without caps; N, C: chain ends. Non-standard residues stand in square brackets, D forms with d. Residues, ends and D or L forms follow the SMILES beside them. Groups on a side chain read outwards from the residue. Chains are numbered I, II in the order given. *: point of attachment. X2 = OC[C@H]1O[C@@H](O[C@H]2[C@H](O)[C@@H](O)[C@H](*)O[C@@H]2CO)[C@H](O)[C@@H](O)[C@H]1O; X7 = O=C(O)CN1CCN(CC(=O)O)CCN([C@H](CCC(=O)*)C(=O)O)CCN(CC(=O)O)CC1; Benzoyl(4-SiFtBu2) = CC(C)(C)[Si](F)(c1ccc(C(=O)*)cc1)C(C)(C)C; X5 = CC(C)(C)[Si](F)(c1ccc(C[N+](C)(C)CC(=O)*)cc1)C(C)(C)C; DOTA = O=C(O)CN1CCN(CC(=O)O)CCN(CC(=O)*)CCN(CC(=O)O)CC1; d(γGlu) = O=C(O)[C@@H](CCC(=O)[*:2])N[*:1]; dTyr(3-I) = N[C@H](Cc1ccc(O)c(I)c1)C(=O)O; 2Nal = N[C@@H](Cc1ccc2ccccc2c1)C(=O)O; dCit = NC(=O)NCCC[C@@H](N)C(=O)O; dNMeOrn = CN[C@H](CCCN)C(=O)O; d(hCys) = N[C@H](CCS)C(=O)O; 4Amb = NCc1ccc(C(=O)O)cc1; Mercaptoacetyl = O=C(CS)*; 4Abz = Nc1ccc(C(=O)O)cc1; dDap = NC[C@@H](N)C(=O)O; CO = O=C([*:1])[*:2]; Ahx = NCCCCCC(=O)O

What was measured:
[1] = Octanol/PBS partition coefficient (logD7.4); type: physicochemical; settings: n-octanol/PBS pH 7.4, radiolabeled compound
Experimental: The tubes were vortexed at maximum speed for 3 min to ensure equilibrium before centrifugation at 15.000×g for 5 min on a Biofuge 15 from Heraeus Holding GmbH (Osterode, Germany). An aliquot of 100 μL of each fraction was measured in the γ-counter and the log D7.4 calculated as follows: […]

CXCR4 = CXCR4 (Homo sapiens, UniProt P61073); test: Determination of IC50: competition with 125I-Fc-131 on CXCR4-positive Jurkat cells; type: binding; set-up: CXCR4-positive Jurkat T lymphocyte cells were grown in Gibco's RPMI 1640 GlutaMAX medium; endogenous in cells; host or cells: Jurkat T lymphocyte cells (whole cells in suspension, 400.000 per tube);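 further: test compound at 10^−5 to 10^−11 M competed for 2 h at 8 °C with the radioligand on 400,000 cells per well, bound versus free activity measured by γ-counting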
[2] = Biodistribution in Jurkat tumor-bearing CB-17 SCID mice; type: in vivo; settings: female, CB-17 SCID, mouse, in vivo, iv, total radioactivity, 1 h p.i., Jurkat xenograft, CB-17 SCID female mice
Experimental: All animal experiments were conducted in accordance with general animal welfare regulations in Germany and the institutional guidelines for the care and use of animals. To establish tumor xenografts, Jurkat cells (2-3×10^7 cells) were suspended in a mixture of Gibco's RPMI 1640 medium and Matrigel (1/1; v/v) from BD Biosciences (Heidelberg, Germany), and inoculated subcutaneously onto the right shoulder of 6-10 weeks old CB17-SCID mice from either Charles River GmbH (Sulzfeld, Germany) or the in-house mouse breeding facility. Mice were used when tumors had grown to a diameter of 5-8 mm (4-10 weeks after inoculation).
Approximately 0.5-20 MBq (0.02-0.20 nmol) of the ^125I-, ^177Lu-, ^99mTc-, ^18F- or ^68Ga-labeled ligand were injected into the tail vein of Jurkat tumor-bearing CB-17 SCID mice and the animals sacrificed after the respective biodistribution time. Selected organs were removed, weighted and measured in a γ-counter.

[3] = unlabeled or cold (natGa/natLu) compound vs 125I-Fc-131, Jurkat cells
[4] = unlabeled or cold (natGa/natLu) compound vs 125I-Fc-131, Jurkat cells, read-out: IC50

Sequence of CXCR4 (P61073 whole entry): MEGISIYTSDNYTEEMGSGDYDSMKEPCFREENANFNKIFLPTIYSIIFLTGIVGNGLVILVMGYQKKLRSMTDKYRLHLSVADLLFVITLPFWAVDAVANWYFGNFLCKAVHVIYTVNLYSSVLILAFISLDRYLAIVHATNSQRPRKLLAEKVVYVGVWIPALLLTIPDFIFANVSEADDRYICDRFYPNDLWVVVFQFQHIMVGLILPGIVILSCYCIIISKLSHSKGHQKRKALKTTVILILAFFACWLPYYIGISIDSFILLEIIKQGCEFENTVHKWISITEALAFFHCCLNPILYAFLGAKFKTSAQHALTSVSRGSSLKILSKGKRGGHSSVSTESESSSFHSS

C[C@@H](NC(=O)[C@@H](CCCNC(=N)N)NC(=O)[C@@H](CN)NC(=O)CCCCCNC(=O)[C@@H](CNC(=O)CN1CCN(CC(=O)O)CCN(CC(=O)O)CCN(CC(=O)O)CC1)NC(=O)[C@@H](CCS[C@@H]1O[C@H](CO)[C@@H](O[C@@H]2O[C@H](CO)[C@H](O)[C@H](O)[C@H]2O)[C@H](O)[C@H]1O)NC(=O)C[N+](C)(C)Cc1ccc([Si](F)(C(C)(C)C)C(C)(C)C)cc1)C(=O)Nc1ccc(C(=O)NCCC[C@@H]2C(=O)N[C@@H](CCCNC(=N)N)C(=O)N[C@@H](Cc3ccc4ccccc4c3)C(=O)NCC(=O)N[C@H](Cc3ccc(O)cc3)C(=O)N2C)cc1 [CXCR4-SiFA-7 [Lu]] (I: X5-[d(hCys)](X2)[dDap](DOTA)[Ahx][dDap][dR][dA][4Abz] / II: cyclo([dY][dNMeOrn]R[2Nal]G); amide I:C-II:2)
logD7.4 [1]: −2.23 ± 0.11 (7)
IC50 (CXCR4; [3]): 6.05 ± 1.17 nM

C[C@@H](NC(=O)[C@@H](CCCNC(=N)N)NC(=O)[C@@H](CN)NC(=O)[C@@H](CNC(=O)CC[C@H](C(=O)O)N1CCN(CC(=O)O)CCN(CC(=O)O)CCN(CC(=O)O)CC1)NC(=O)[C@@H](CNC(=O)c1ccc([Si](F)(C(C)(C)C)C(C)(C)C)cc1)NC(=O)CC[C@@H](NC(=O)N[C@H](CCC(=O)O)C(=O)O)C(=O)O)C(=O)Nc1ccc(C(=O)NCCC[C@@H]2C(=O)N[C@@H](CCCNC(=N)N)C(=O)N[C@@H](Cc3ccc4ccccc4c3)C(=O)NCC(=O)N[C@H](Cc3ccc(O)cc3)C(=O)N2C)cc1 [CXCR4-SiFA-4 [Lu]] (I: {dE-CO-d(γGlu)}-[dDap](Benzoyl(4-SiFtBu2))[dDap](X7)[dDap][dR][dA][4Abz] / II: cyclo([dY][dNMeOrn]R[2Nal]G); amide I:C-II:2)
logD7.4 [1]: −1.71 ± 0.09 (8)
IC50 (CXCR4; [3]): 93.4 ± 10.2 nM

C[C@@H](NC(=O)[C@@H](CCCNC(=N)N)NC(=O)[C@@H](C)NC(=O)[C@@H](CO)NC(=O)[C@@H](CO)NC(=O)[C@@H](CO)NC(=O)CS)C(=O)Nc1ccc(C(=O)NCCC[C@@H]2C(=O)N[C@@H](CCCNC(=N)N)C(=O)N[C@@H](Cc3ccc4ccccc4c3)C(=O)NCC(=O)N[C@H](Cc3ccc(O)cc3)C(=O)N2C)cc1 [Tc-CXCR4-2] (I: Mercaptoacetyl-[dS][dS][dS][dA][dR][dA][4Abz] / II: cyclo([dY][dNMeOrn]R[2Nal]G); amide I:C-II:2)
IC50 (CXCR4): 32.4 ± 9.9 nM

C[C@@H](NC(=O)[C@@H](CCCNC(=N)N)NC(=O)[C@@H](CN)NC(=O)CN1CCN(CC(=O)O)CCN(CC(=O)O)CCN(CC(=O)O)CC1)C(=O)NCc1ccc(C(=O)NCCC[C@@H]2C(=O)N[C@@H](CCCNC(=N)N)C(=O)N[C@@H](Cc3ccc4ccccc4c3)C(=O)NCC(=O)N[C@H](Cc3ccc(O)c(I)c3)C(=O)N2C)cc1 [CXCR4-DOTA-2] (cyclo([dTyr(3-I)][dNMeOrn]([4Amb-dA-dR-dDap-DOTA])R[2Nal]G))
IC50 (CXCR4): 7.03 ± 0.59 nM

C[C@@H](NC(=O)[C@@H](CCCNC(=N)N)NC(=O)[C@@H](CN)NC(=O)CN1CCN(CC(=O)O)CCN(CC(=O)O)CCN(CC(=O)O)CC1)C(=O)Nc1ccc(C(=O)NCCC[C@@H]2C(=O)N[C@@H](CCCNC(=N)N)C(=O)N[C@@H](Cc3ccc4ccccc4c3)C(=O)NCC(=O)N[C@H](Cc3ccc(O)c(I)c3)C(=O)N2C)cc1 [CXCR4-DOTA-4] (cyclo([dTyr(3-I)][dNMeOrn]([4Abz-dA-dR-dDap-DOTA])R[2Nal]G))
IC50 (CXCR4; [4]): 4.64 ± 0.96 nM

C[C@@H](NC(=O)[C@@H](CCCNC(=N)N)NC(=O)[C@@H](CN)NC(=O)CCCCCNC(=O)[C@@H](CNC(=O)CC[C@H](C(=O)O)N1CCN(CC(=O)O)CCN(CC(=O)O)CCN(CC(=O)O)CC1)NC(=O)C[N+](C)(C)Cc1ccc([Si](F)(C(C)(C)C)C(C)(C)C)cc1)C(=O)Nc1ccc(C(=O)NCCC[C@@H]2C(=O)N[C@@H](CCCNC(=N)N)C(=O)N[C@@H](Cc3ccc4ccccc4c3)C(=O)NCC(=O)N[C@H](Cc3ccc(O)cc3)C(=O)N2C)cc1 [CXCR4-SiFA-6 [Lu]]
logD7.4 [1]: −0.85 ± 0.04 (6)
IC50 (CXCR4; [3]): 8.29 ± 3.11 nM

C[C@@H](NC(=O)[C@@H](CCCNC(=N)N)NC(=O)[C@@H](CN)NC(=O)CN1CCN(CC(=O)O)CCN(CC(=O)O)CCN(CC(=O)O)CC1)C(=O)Nc1ccc(C(=O)NCCC[C@@H]2C(=O)N[C@@H](CCCNC(=N)N)C(=O)N[C@@H](Cc3ccc4ccccc4c3)C(=O)NCC(=O)N[C@H](Cc3ccc(O)cc3)C(=O)N2C)cc1 [CXCR4-DOTA-3] (cyclo([dY][dNMeOrn]([4Abz-dA-dR-dDap-DOTA])R[2Nal]G))
IC50 (CXCR4; [4]): 3.16 ± 0.63 nM

C[C@@H](NC(=O)[C@@H](CCCNC(=N)N)NC(=O)[C@@H](Cc1ccccc1)NC(=O)[C@@H](CO)NC(=O)[C@@H](CO)NC(=O)[C@@H](CO)NC(=O)CS)C(=O)Nc1ccc(C(=O)NCCC[C@@H]2C(=O)N[C@@H](CCCNC(=N)N)C(=O)N[C@@H](Cc3ccc4ccccc4c3)C(=O)NCC(=O)N[C@H](Cc3ccc(O)cc3)C(=O)N2C)cc1 [Tc-CXCR4-4] (I: Mercaptoacetyl-[dS][dS][dS][dF][dR][dA][4Abz] / II: cyclo([dY][dNMeOrn]R[2Nal]G); amide I:C-II:2)
IC50 (CXCR4): 3490 ± 502 nM

CC[C@H](C)[C@@H]([C@@H](CC(=O)N1CCC[C@H]1[C@H](OC)[C@@H](C)C(=O)N[C@H](C)C(O)c1ccccc1)OC)N(C)C(=O)[C@@H](NC(=O)[C@H](C(C)C)N(C)C(=O)OCc1ccc(NC(=O)[C@H](CCCNC(N)=O)NC(=O)[C@@H](NC(=O)CCCCCN2C(=O)CC(SC[C@@H](N)C(=O)NC(CCCNC(=N)N)C(=O)N[C@H](C)C(=O)Nc3ccc(C(=O)NCCC[C@@H]4C(=O)N[C@@H](CCCNC(=N)N)C(=O)N[C@H](Cc5ccc6ccccc6c5)C(=O)NCC(=O)N[C@@H](Cc5ccc(O)cc5)C(=O)N4C)cc3)C2=O)C(C)C)cc1)C(C)C (stereo partly drawn) [CXCR4-MMAE-1]
IC50 (CXCR4): 99.8 ± 7.55 nM

C[C@@H](NC(=O)[C@@H](CCCNC(N)=O)NC(=O)[C@@H](CN)NC(=O)CN1CCN(CC(=O)O)CCN(CC(=O)O)CCN(CC(=O)O)CC1)C(=O)Nc1ccc(C(=O)NCCC[C@@H]2C(=O)N[C@@H](CCCNC(=N)N)C(=O)N[C@@H](Cc3ccc4ccccc4c3)C(=O)NCC(=O)N[C@H](Cc3ccc(O)cc3)C(=O)N2C)cc1 [CXCR4-DOTA-5] (cyclo([dY][dNMeOrn]([4Abz-dA-dCit-dDap-DOTA])R[2Nal]G))
IC50 (CXCR4; [4]): 21.3 ± 6.64 nM

C[C@@H](NC(=O)[C@@H](CCCNC(=N)N)NC(=O)[C@@H](Cc1c[nH]cn1)NC(=O)[C@@H](CO)NC(=O)[C@@H](CO)NC(=O)[C@@H](CO)NC(=O)CS)C(=O)Nc1ccc(C(=O)NCCC[C@@H]2C(=O)N[C@@H](CCCNC(=N)N)C(=O)N[C@@H](Cc3ccc4ccccc4c3)C(=O)NCC(=O)N[C@H](Cc3ccc(O)cc3)C(=O)N2C)cc1 [Tc-CXCR4-5] (I: Mercaptoacetyl-[dS][dS][dS][dH][dR][dA][4Abz] / II: cyclo([dY][dNMeOrn]R[2Nal]G); amide I:C-II:2)
tissue uptake at 1 h ([2]; Adrenal, read-out: % iD/g Adrenal): 0.42 %ID/g
tissue uptake at 1 h ([2]; Blood, read-out: % iD/g Blood): 0.65 %ID/g
tissue uptake at 1 h ([2]; Bone, read-out: % iD/g Bone): 1.55 %ID/g
tissue uptake at 1 h ([2]; Heart, read-out: % iD/g Heart): 0.48 %ID/g
tissue uptake at 1 h ([2]; Intestine, read-out: % iD/g Intestine): 0.76 %ID/g
tissue uptake at 1 h ([2]; Kidney, read-out: % iD/g Kidney): 2.89 %ID/g
tissue uptake at 1 h ([2]; Liver, read-out: % iD/g Liver): 2.42 %ID/g
tissue uptake at 1 h ([2]; Lung, read-out: % iD/g Lung): 1.57 %ID/g
tissue uptake at 1 h ([2]; Muscle, read-out: % iD/g Muscle): 0.15 %ID/g
tissue uptake at 1 h ([2]; Pancreas, read-out: % iD/g Pancreas): 0.4 %ID/g
tissue uptake at 1 h ([2]; Spleen, read-out: % iD/g Spleen): 8.47 %ID/g
tissue uptake at 1 h ([2]; Stomach, read-out: % iD/g Stomach): 0.7 %ID/g
tissue uptake at 1 h ([2]; Tumor, read-out: % iD/g Tumor): 1.48 %ID/g
IC50 (CXCR4): 11 ± 1.3 nM
